Laboratory results as given in patent US20250074911A1, “MACROCYCLIC BTK INHIBITORS” (Crossfire Oncology Holding B.V., priority 2021, published 2025).
Values joined by “and” are separate entries in the source; they are usually repeats but may differ in a detail not shown here. Identical values can stand only once.

Assays:
[1] = molecular target: full-length wt-BTK enzyme (Homo sapiens (Human), UniProt Q06187); assay: Biochemical kinase assay wt-BTK (IMAP)
Outline: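 IMAP fluorescence polarization assay: 1.2 nM enzyme pre-incubated 1 h with compound at room temperature, then 50 nM fluorescein-labeled MBP-derived peptide and 4 μM ATP added. Reaction ran 2 h at room temperature in the dark before quenching with IMAP binding solution.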

[2] = molecular target: full-length BTK C481S enzyme (Homo sapiens (Human), UniProt Q06187, C481S); assay: Biochemical kinase assay BTK C481S (IMAP)
Outline: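 Full-length BTK C481S (1.2 nM) was pre-incubated with compound for 1 h at room temperature in the dark, then reacted with fluorescein-labelled MBP-derived peptide (50 nM) and ATP (7 μM) for 2 h. Reactions were quenched with IMAP binding solution, and IC50 values were derived from fluorescence polarization.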

[3] = system: wt-REC-1 mantle cell lymphoma cells; assay: Cell proliferation assay wt-REC-1 (ATPlite, 72 hours); type: cell-based; conditions: 72 h; read-out: IC50 wt-REC-1
Outline: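 Luminescent viability read over 72 h, start-of-incubation signal recorded separately to separate growth from cell death. Percentage growth referenced to compound-free 0.3% DMSO wells; IC50 from 4-parameter logistic fit.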

[4] = system: REC-1 T474I cell lines; assay: Cell proliferation assay REC-1 BTK T474I knock-in cells (ATPlite, 72 hours); type: cell-based; conditions: Homo sapiens, Rec1; 72 hours; read-out: IC50 REC-1 T474I
Outline: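 REC-1 cells carrying CRISPR knock-in mutant BTK, single-cell cloned and sequence-confirmed, were exposed to compound for 72 h and read by ATPlite luminescence. Percentage growth was calculated against the signal at the start of incubation and against untreated 0.3% DMSO wells as maximum growth.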

[5] = molecular target: wt-BTK (Homo sapiens (Human), UniProt Q06187); assay: Binding kinetics measurements (Surface Plasmon Resonance) on wt-BTK; conditions: for Kd: binding affinity by Surface Plasmon Resonance (SPR); for Tau (h) wt-BTK (Act): target residence time, SPR
Outline: (§1)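 Biotinylated BTK captured on streptavidin chips (4° C; free streptavidin blocked with biocytin); runs at 22° C in buffer with 1% DMSO, 30 μl/min. Single cycle kinetics, five injections rising over 3.16-316 nM; double-referenced sensorgrams fitted, two-state model for induced fit, duplicate constants geometrically averaged.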

[6] = molecular target: BTK C481S (Homo sapiens (Human), UniProt Q06187, C481S); assay: Binding kinetics measurements (Surface Plasmon Resonance) on BTK C481S; conditions: for Kd: binding affinity by Surface Plasmon Resonance (SPR); for Tau (h) BTK C418S (Act): target residence time for BTK C481S, SPR
Outline: as §1

[7] = molecular target: BTK T316A (Homo sapiens (Human), UniProt Q06187, T316A); assay: Binding kinetics measurements (Surface Plasmon Resonance) on BTK T316A; conditions: for Tau (h) BTK T316A (Act): target residence time, SPR; for Kd: binding affinity by Surface Plasmon Resonance (SPR)
Outline: as §1

[8] = molecular target: BTK T474I (Homo sapiens (Human), UniProt Q06187, T474I); assay: Binding kinetics measurements (Surface Plasmon Resonance) on BTK T474I; conditions: for Kd: binding affinity by Surface Plasmon Resonance (SPR); for Tau (h) BTK T474I (Act): target residence time, SPR
Outline: as §1

[9] = molecular target: BTK T474S (Homo sapiens (Human), UniProt Q06187, T474S); assay: Binding kinetics measurements (Surface Plasmon Resonance) on BTK T474S; conditions: for residence time: SPR binding kinetics, BTK T474S, read-out: Tau (h) BTK T474S (Act), target residence time (converted); for Kd: binding affinity by Surface Plasmon Resonance (SPR)
Outline: as §1

[10] = system: wt-TMD8 diffuse large B-cell lymphoma cells; assay: Cell proliferation assay wt-TMD8 (ATPlite, 120 hours); type: cell-based; conditions: B-cell; wt-TMD8 cells, 120 hours, ATPlite; read-out: IC50 wt-TMD8
Outline: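 wt-TMD8 DLBCL cells, 1600 per well in RPMI-1640 with 10% FBS, rested ≥5 h then exposed to compound for 120 h at 37° C, 5% CO2. Viability read by ATPlite luminescence; percentage growth calculated relative to start-of-incubation signal and untreated 0.3% DMSO maximum growth.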

BTK T474I, sequence (Q06187 whole entry T474I): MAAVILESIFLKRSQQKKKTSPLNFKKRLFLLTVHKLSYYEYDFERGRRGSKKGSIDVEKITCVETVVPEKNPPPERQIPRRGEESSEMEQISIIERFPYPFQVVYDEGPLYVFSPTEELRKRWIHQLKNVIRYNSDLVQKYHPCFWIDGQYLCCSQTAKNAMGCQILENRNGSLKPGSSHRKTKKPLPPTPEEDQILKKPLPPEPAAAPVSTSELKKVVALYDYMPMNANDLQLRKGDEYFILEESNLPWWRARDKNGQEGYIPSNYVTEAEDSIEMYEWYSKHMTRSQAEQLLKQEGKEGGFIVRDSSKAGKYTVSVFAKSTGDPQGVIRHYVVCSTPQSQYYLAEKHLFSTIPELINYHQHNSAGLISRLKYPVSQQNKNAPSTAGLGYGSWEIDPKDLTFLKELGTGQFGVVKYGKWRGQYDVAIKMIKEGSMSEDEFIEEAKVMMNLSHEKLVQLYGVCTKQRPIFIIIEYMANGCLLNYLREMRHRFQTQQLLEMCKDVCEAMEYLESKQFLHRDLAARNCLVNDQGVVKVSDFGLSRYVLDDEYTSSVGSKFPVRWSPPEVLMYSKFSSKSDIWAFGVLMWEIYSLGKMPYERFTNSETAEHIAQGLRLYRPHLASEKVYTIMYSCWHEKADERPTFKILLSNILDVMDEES
wt-BTK, sequence (Q06187 whole entry): as the sequence (Q06187 whole entry T474I) above, with I474T counted along it
full-length wt-BTK enzyme, sequence (Q06187 whole entry): as the sequence (Q06187 whole entry T474I) above, with I474T counted along it
full-length BTK C481S enzyme, sequence (Q06187 whole entry C481S): as the sequence (Q06187 whole entry T474I) above, with I474T, C481S counted along it
BTK C481S, sequence (Q06187 whole entry C481S): as the sequence (Q06187 whole entry T474I) above, with I474T, C481S counted along it
BTK T474S, sequence (Q06187 whole entry T474S): as the sequence (Q06187 whole entry T474I) above, with I474S counted along it
BTK T316A, sequence (Q06187 whole entry T316A): as the sequence (Q06187 whole entry T474I) above, with T316A, I474T counted along it

| Structure (SMILES) | IC50 [1] [nM] | IC50 [2] [nM] | IC50 [3] [nM] | IC50 [4] [nM] | Kd [5] [nM] | Tau (h) wt-BTK (Act) [5] [h] | Kd [6] [nM] | Tau (h) BTK C418S (Act) [6] [h] | Tau (h) BTK T316A (Act) [7] [h] | Kd [8] | residence time [9] [h] | Kd [9] [nM] | IC50 [10] [nM] | Kd [7] [nM] | Tau (h) BTK T474I (Act) [8] [h] |
| --- | --- | --- | --- | --- | --- | --- | --- | --- | --- | --- | --- | --- | --- | --- | --- |
| Nc1ncc2c3c1c(-c1ccc(C(=O)Nc4cc(C(F)(F)F)ccn4)cc1)nn3[C@@H]1CCC[C@H](C1)C(=O)NCCCC/C=C\C2 [Example 85b] | < 5 | < 5 | < 100 | 100 to 500 | < 5 | 4.08 | < 5 | 7.12 | 2.50 | 10 to 50 nM and < 5 nM | 4.36 | < 3 | < 100 | – | – |
| Nc1ncc2c3c1c(-c1ccc(C(=O)Nc4ccccn4)cc1)nn3[C@@H]1CCC[C@H](C1)C(=O)NCCCC/C=C\C2 [Example 87b] | < 5 | < 5 | < 100 | 100 to 500 | < 5 | – | < 5 | – | – | 10 to 50 nM and < 5 nM | – | < 3 | < 100 | < 5 | – |
| Nc1ncc2c3c1c(-c1ccc(C(=O)Nc4ccccn4)cc1)nn3[C@@H]1CCC[C@H](C1)C(=O)NCCCCC/C=C\C2 [Example 88b] | < 5 | < 5 | < 100 | 500 to 10000 | < 5 | 1.37 | < 5 | 1.44 | – | 10 to 50 nM and < 5 nM | – | < 3 | < 100 | < 5 | – |
| Nc1ncc2c3c1c(-c1ccc(C(=O)Nc4ccccn4)cc1)nn3[C@@H]1CCC[C@H](C1)NC(=O)CCCC/C=C\C2 [Example 100b] | < 5 | < 5 | 100 to 1000 | 500 to 10000 | < 5 | – | < 5 | 0.98 | – | 10 to 50 nM and < 5 nM | – | < 5 | < 100 | < 5 | – |
| Nc1ncc2n3c(nc(-c4ccc(C(=O)Nc5cc(C(F)(F)F)ccn5)cc4)c13)[C@@H]1CCC[C@H](C1)NC(=O)CCCCC/C=C/2 [Example 131] | < 5 | < 5 | < 100 | < 100 | < 5 | 3.70 | < 5 | 5.25 | 3.44 | < 2 nM | 9.61 | < 3 | < 100 | < 5 | 2.37 |
| COc1ccc(F)cc1C(=O)NCc1ccc(-c2nn3c4c(cnc(N)c24)/C=C/CCCCCC(=O)N[C@H](C)CC3)cc1 [Example 139] | < 5 | < 5 | 100 to 1000 | 100 to 500 | < 5 | 1.38 | < 5 | 1.36 | – | 10 to 50 nM and < 5 nM | 2.11 | < 3 | < 100 | < 5 | – |
| Nc1ncc2c3c1c(-c1ccc(C(=O)Nc4cc(C(F)(F)F)ccn4)cc1)nn3[C@@H]1CCC[C@H](C1)NC(=O)[C@H]1CN(C/C=C/2)CCN1 [Example 141] | < 5 | < 5 | < 100 | < 100 | < 5 | >24 | < 5 | 4.45 | 8.86 | < 2 nM | 4.17 | < 3 | < 100 | < 5 | 6.21 |
| Nc1ncc2c3c1c(-c1ccc(C(=O)Nc4cc(C(F)(F)F)ccn4)cc1)nn3[C@@H]1CCC[C@H](C1)NC(=O)[C@@H]1CCN(C/C=C/2)C1 [Example 147] | < 5 | < 5 | < 100 | < 100 | < 5 | 5.28 | < 5 | 1.73 | 10.42 | < 2 nM | 6.36 | < 3 | < 100 | < 5 | – |
| C[C@H]1CC(=O)N[C@@H]2CCCC(C2)n2nc(-c3ccc(C(=O)Nc4cc(C(F)(F)F)ccn4)cc3)c3c(N)ncc(c32)/C=C/CCN1 [Example 150] | < 5 | < 5 | 100 to 1000 | 100 to 500 | < 5 | 2.52 | < 5 | 1.51 | 2.48 | < 2 nM | 1.5 | < 3 | < 100 | < 5 | – |
| C[C@H]1CC(=O)N[C@@H]2CCC[C@H](C2)n2nc(-c3ccc(C(=O)Nc4cc(C(F)(F)F)ccn4)cc3)c3c(N)ncc(c32)/C=C/CN1C [Example 151] | < 5 | < 5 | 100 to 1000 | 100 to 500 | < 5 | 7.58 | < 5 | 8.25 | 1.89 | < 2 nM | 2.11 | < 3 | < 100 | – | 0.70 |
| C[C@H]1CC(=O)N[C@@H]2CCC[C@H](C2)n2nc(-c3ccc(C(=O)Nc4cc(C(F)(F)F)ccn4)cc3)c3c(N)ncc(c32)/C=C/CCN1C [Example 152] | < 5 | < 5 | 100 to 1000 | < 100 | < 5 | 2.36 | < 5 | 5.84 | 6.08 | < 2 nM | 1.24 | < 3 | < 100 | < 5 | 2.11 |
| C[C@@H]1CCn2nc(-c3ccc(C(=O)Nc4cc(C#N)ccn4)cc3)c3c(N)ncc(c32)/C=C/CCOCCC(=O)N1 [Example 153] | < 5 | < 5 | 100 to 1000 | 500 to 10000 | < 5 | 1.29 | < 5 | 1.67 | – | < 2 nM | 1.97 | < 3 | < 100 | < 5 | – |
| N#Cc1ccnc(NC(=O)c2ccc(-c3nn4c5c(cnc(N)c35)/C=C/CCOCCC(=O)N[C@@H]3CCC[C@@H]4C3)cc2)c1 [Example 155] | < 5 | < 5 | < 100 | < 100 | < 5 | 9.97 | < 5 | 2.21 | 2.91 | < 2 nM | 3.8 | < 3 | < 100 | < 5 | 2.63 |
| C[C@@H]1CC(=O)N[C@@H]2CCC[C@H](C2)n2nc(-c3ccc(C(=O)Nc4cc(C(F)(F)F)ccn4)cc3)c3c(N)ncc(c32)/C=C/CCO1 [Example 157] | < 5 | < 5 | < 100 | < 100 | < 5 | 5.15 | < 5 | 2.42 | 5.27 | < 2 nM | 1.47 | < 3 | < 100 | < 5 | 3.34 |
| C[C@@H]1CC(=O)N[C@@H]2CCC[C@H](C2)n2nc(-c3ccc(C(=O)Nc4cc(C#N)ccn4)cc3)c3c(N)ncc(c32)/C=C/CCO1 [Example 162] | < 5 | < 5 | < 100 | < 100 | – | 3.41 | – | 6.32 | 7.64 | – | 2.02 | – | < 100 | – | 2.05 |
